Laboratory results: PMC8523698, “Preclinical characterization of an intravenous coronavirus 3CL protease inhibitor for the potential treatment of COVID19” (Nature Communications, 2021)
“And” between values parts separate entries of the source, which are not always exact repeats. Equal values may be shown once. Read-outs that look alike come from different tables or passages of the source.

Experiments:
[1] = Liver microsome binding by equilibrium dialysis; details: for fraction unbound at 6 h: human, human liver microsomes, fu
[2] = PBPK modeling (Simcyp) of DDI with itraconazole
SARS-CoV-2 [3] = details: cited from earlier work
PEDV 3CL^pro = PEDV 3CL^pro (Porcine epidemic diarrhea virus, UniProt P0C6Y4); assay type: biochemical
Sequence of PEDV 3CL^pro (P0C6Y4 2998-3299): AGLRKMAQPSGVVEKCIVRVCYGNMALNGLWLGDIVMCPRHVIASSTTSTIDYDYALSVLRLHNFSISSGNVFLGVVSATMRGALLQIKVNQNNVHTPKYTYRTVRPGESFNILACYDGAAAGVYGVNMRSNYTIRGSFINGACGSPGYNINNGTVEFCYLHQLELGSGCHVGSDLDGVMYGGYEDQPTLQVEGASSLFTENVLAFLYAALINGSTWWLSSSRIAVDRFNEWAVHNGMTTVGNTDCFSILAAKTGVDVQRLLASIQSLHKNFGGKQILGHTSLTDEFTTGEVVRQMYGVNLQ

CYP3A4/5 = CYP3A4/5 (Homo sapiens, UniProt P08684); assay: Time-dependent inhibition of CYP enzymes in human liver microsomes; details: CYP3A4; Simcyp interaction input
Sequence of CYP3A4/5 (P08684 whole entry): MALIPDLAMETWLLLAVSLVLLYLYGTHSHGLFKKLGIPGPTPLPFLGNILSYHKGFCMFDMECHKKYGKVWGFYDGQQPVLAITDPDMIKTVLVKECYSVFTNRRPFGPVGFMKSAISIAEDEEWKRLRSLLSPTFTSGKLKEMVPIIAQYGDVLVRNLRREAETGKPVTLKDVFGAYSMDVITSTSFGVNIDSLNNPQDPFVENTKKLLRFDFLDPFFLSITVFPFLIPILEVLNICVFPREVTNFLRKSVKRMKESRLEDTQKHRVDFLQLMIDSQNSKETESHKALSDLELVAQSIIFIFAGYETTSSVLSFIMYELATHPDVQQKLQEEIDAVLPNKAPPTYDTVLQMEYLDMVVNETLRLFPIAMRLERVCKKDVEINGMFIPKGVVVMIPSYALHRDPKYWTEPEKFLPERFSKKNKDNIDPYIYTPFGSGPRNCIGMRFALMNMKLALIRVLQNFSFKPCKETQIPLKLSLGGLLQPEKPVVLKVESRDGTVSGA

HKU9-CoV 3CL^pro = HKU9-CoV 3CL^pro (Bat coronavirus HKU9, UniProt P0C6W5); assay type: biochemical; details: for Initial Velocity: triplicate, listed as Compound F2
Sequence of HKU9-CoV 3CL^pro (P0C6W5 3104-3409 limits assumed): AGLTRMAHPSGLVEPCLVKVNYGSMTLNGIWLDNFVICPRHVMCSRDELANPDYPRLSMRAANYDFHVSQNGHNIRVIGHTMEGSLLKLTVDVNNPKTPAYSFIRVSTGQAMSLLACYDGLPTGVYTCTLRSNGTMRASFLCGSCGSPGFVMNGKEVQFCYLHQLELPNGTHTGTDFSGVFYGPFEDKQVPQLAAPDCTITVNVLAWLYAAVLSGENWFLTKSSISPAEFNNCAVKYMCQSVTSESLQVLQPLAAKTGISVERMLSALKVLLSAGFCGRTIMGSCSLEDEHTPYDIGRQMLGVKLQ

HKU1-CoV 3CL^pro = HKU1-CoV 3CL^pro (Human coronavirus HKU1, UniProt P0C6X2); assay: biochemical
Sequence of HKU1-CoV 3CL^pro (P0C6X2 3335-3637): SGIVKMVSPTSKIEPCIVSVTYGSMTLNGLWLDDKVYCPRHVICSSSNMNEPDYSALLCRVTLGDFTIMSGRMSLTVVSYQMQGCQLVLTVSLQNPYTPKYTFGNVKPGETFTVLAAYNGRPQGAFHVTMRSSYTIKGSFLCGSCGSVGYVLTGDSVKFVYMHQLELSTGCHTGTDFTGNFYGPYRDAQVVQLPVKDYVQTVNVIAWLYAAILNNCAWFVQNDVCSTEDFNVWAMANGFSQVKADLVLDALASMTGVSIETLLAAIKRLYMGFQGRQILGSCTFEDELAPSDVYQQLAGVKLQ

Human Chymotrypsin = assay: Mammalian protease panel; assay type: biochemical
HIV-1 protease = HIV-1 protease (Human immunodeficiency virus type 1 group M subtype B, UniProt P04585); assay: Mammalian protease panel; assay type: biochemical
Procedure: (§1) The respective protease in assay buffer (50 mM Tris with 100 mM sodium chloride and Brij 35 at pH = 8 except for cathepsin D pH = 3.5 and HIV pH = 5.5) was added to assay ready compound plates. The enzymatic reaction was initiated with the addition of indicated substrate in assay buffer. Initial rates were measured by following the fluorescence of the cleaved substrate (Ex/Em 355/460 […]) using a Spectramax (Molecular Devices) fluorescence plate reader in the kinetic format.
(§2) IC50 values were generated based on a four-parameter logistic fit model using ActivityBase software (IDBS). Percent activity values were calculated based on control wells containing no compound (100% activity) and wells containing a control compound (0% activity).

Human Cathepsin B = Human Cathepsin B (Homo sapiens, UniProt P07858); assay: Mammalian protease panel; assay type: biochemical
Procedure: as §1, §2

Human Elastase = Human Elastase (Homo sapiens, UniProt P08246); assay: Mammalian protease panel; assay type: biochemical
Sequence of Human Elastase (P08246 30-247 limits assumed): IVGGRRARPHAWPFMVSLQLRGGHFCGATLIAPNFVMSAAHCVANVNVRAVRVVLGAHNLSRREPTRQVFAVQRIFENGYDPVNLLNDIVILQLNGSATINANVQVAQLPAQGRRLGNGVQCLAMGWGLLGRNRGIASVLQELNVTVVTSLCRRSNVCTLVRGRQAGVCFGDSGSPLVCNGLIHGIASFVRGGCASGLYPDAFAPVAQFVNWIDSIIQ
Procedure: as §1, §2

[4] = LogD shake-flask measurement at pH 7.4; details: 1-octanol/0.1 M sodium phosphate buffer
HKU5-CoV 3CL^pro = HKU5-CoV 3CL^pro (Bat coronavirus HKU5, UniProt P0C6W4); assay type: biochemical; details: for Initial Velocity: triplicate, listed as Compound F2
Sequence of HKU5-CoV 3CL^pro (P0C6W4 3339-3644 limits assumed): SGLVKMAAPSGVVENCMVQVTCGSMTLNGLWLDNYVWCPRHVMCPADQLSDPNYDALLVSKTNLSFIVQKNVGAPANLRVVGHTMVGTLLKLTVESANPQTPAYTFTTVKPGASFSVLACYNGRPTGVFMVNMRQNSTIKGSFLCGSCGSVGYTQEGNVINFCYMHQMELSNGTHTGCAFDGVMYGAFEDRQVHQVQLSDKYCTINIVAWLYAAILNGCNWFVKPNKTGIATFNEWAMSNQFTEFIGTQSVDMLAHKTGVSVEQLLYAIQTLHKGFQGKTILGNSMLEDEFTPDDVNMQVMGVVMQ

SARS-CoV-2 USA-WA1/2020 = assay: Ad5-hACE2 SARS-CoV-2 mouse infection model; assay type: in vivo, BALB/c mice; details: 100 mg/kg BID from day 0; lungs day 3; individual mice
SARS-CoV-2 [5] = assay: microbe, parasite or virus in culture; assay type: cell-based; details: Severe acute respiratory syndrome coronavirus 2, Vero C1008; N=3; read-out: EC50 ± Std. Dev
[6] = Cytotoxicity in MRC-5 cells; details: human
[7] = Metabolic stability and enzyme kinetics in liver S9 (conversion to PF-00835231); details: for microsomal CLint / Km at 20 min: rat
[8] = as above
[9] = as above; details: for PF-00835231 formation rate: Human Liver S9 0.03 mg/ml, 20 min, R1-R3; for Km at 20 min / microsomal CLint: human
[10] = liver S9, pH 7.5, CLint,2, low affinity kinetic component
[11] = liver S9, pH 7.5, CLintu (unbound CLint)

## COc1cccc2[nH]c(C(=O)N[C@@H](CC(C)C)C(=O)N[C@@H](C[C@@H]3CCNC3=O)C(=O)CO)cc12 [PF-00835231]
[1]; Microsomal protein 0.806mg/ml, individual replicates
  fu, human liver microsomal binding: 0.70 and 0.77
[1]; clearance input
  HLM microsomal binding: 0.75
[1]; human liver microsomal binding, Geomean, Microsomal protein 0.806mg/ml
  fraction unbound at 6 h: 0.75
[1]; human liver microsomal binding, Microsomal protein 0.806mg/ml, individual replicates
  fraction unbound at 6 h: 0.84
[1]; microsomal protein 0.806mg/ml, individual replicates n=1-4
  fraction unbound at 6 h: 0.7
[2]; Predicted from in vitro phenotyping data
  fm,CYP3A: 0.76
[2]; Simcyp elimination input, Recombinant, CYP3A4, Pathway 1
  CLint: 0.147 µL/min/pmol
[2]; human
  CL renal: 50 mL/min
[2]; human, plasma
  clearance: 417 mL/min
SARS-CoV-2 [3]; P-gp inhibitor 0 uM
  EC50: 193 nM
SARS-CoV-2 [3]; P-gp inhibitor 1 uM
  EC50: 178 nM
SARS-CoV-2 [3]; human lung carcinoma cells
  EC90: 440 nM
PEDV 3CL^pro
  Ki: 0.3 ± 0.11 nM
CYP3A4/5
  MBI Kapp: 163.000 µM
HKU9-CoV 3CL^pro; [Compound F2] 1.95312 nM
  Initial Velocity: 0.9878 and 0.9959 and 0.983
HKU9-CoV 3CL^pro; [Compound F2] 3.90625 nM
  Initial Velocity: 0.9913 and 0.9924 and 0.95
HKU9-CoV 3CL^pro; [Compound F2] 7.8125 nM
  Initial Velocity: 0.9224 and 0.9795 and 0.9137
HKU9-CoV 3CL^pro; [Compound F2] 20 nM
  Initial Velocity: 0.886 and 0.9243 and 0.93
HKU9-CoV 3CL^pro; [Compound F2] 30 nM
  Initial Velocity: 0.8569 and 0.8538 and 0.879
HKU9-CoV 3CL^pro; [Compound F2] 31.25 nM
  Initial Velocity: 0.8589 and 0.8929 and 0.8492
HKU9-CoV 3CL^pro; [Compound F2] 40 nM
  Initial Velocity: 0.8139 and 0.8202 and 0.8114
HKU9-CoV 3CL^pro; [Compound F2] 50 nM
  Initial Velocity: 0.7816 and 0.7894 and 0.7901
HKU9-CoV 3CL^pro; [Compound F2] 60 nM
  Initial Velocity: 0.7312 and 0.6789 and 0.7455
HKU9-CoV 3CL^pro; [Compound F2] 62.5 nM
  Initial Velocity: 0.7579 and 0.8162 and 0.7406
HKU9-CoV 3CL^pro; [Compound F2] 80 nM
  Initial Velocity: 0.682 and 0.6702 and 0.6841
HKU9-CoV 3CL^pro; [Compound F2] 100 nM
  Initial Velocity: 0.6302 and 0.62 and 0.5903
HKU9-CoV 3CL^pro; [Compound F2] 200 nM
  Initial Velocity: 0.2879 and 0.279 and 0.2522
HKU9-CoV 3CL^pro; [Compound F2] 1000 nM
  Initial Velocity: 0.000466 and 0.000256
HKU9-CoV 3CL^pro; mean ± SEM
  Ki: 0.74 ± 0.68 nM
HKU1-CoV 3CL^pro
  Ki: 0.85 ± 0.24 nM
Human Chymotrypsin
  IC50: > 100000 nM
HIV-1 protease
  IC50: > 11000 nM
Human Cathepsin B
  IC50: 6000 nM and 6100 nM
Human Elastase
  IC50: > 33000 nM
[4]
  logD at 1 h: 1.7
HKU5-CoV 3CL^pro; [Compound F2] 1.95312 nM
  Initial Velocity: 0.9802 and 1.028 and 0.9544
HKU5-CoV 3CL^pro; [Compound F2] 3.90625 nM
  Initial Velocity: 0.9722 and 0.992 and 0.9888
HKU5-CoV 3CL^pro; [Compound F2] 7.8125 nM
  Initial Velocity: 0.8869 and 0.9497 and 0.9402
HKU5-CoV 3CL^pro; [Compound F2] 20 nM
  Initial Velocity: 0.7838 and 0.8106 and 0.827
HKU5-CoV 3CL^pro; [Compound F2] 30 nM
  Initial Velocity: 0.6911 and 0.6076 and 0.6927
HKU5-CoV 3CL^pro; [Compound F2] 31.25 nM
  Initial Velocity: 0.6277 and 0.6613 and 0.6251
HKU5-CoV 3CL^pro; [Compound F2] 40 nM
  Initial Velocity: 0.5119 and 0.5104 and 0.5524
HKU5-CoV 3CL^pro; [Compound F2] 50 nM
  Initial Velocity: 0.32 and 0.3287 and 0.3636
HKU5-CoV 3CL^pro; [Compound F2] 62.5 nM
  Initial Velocity: 0.1843 and 0.2599 and 0.2229
HKU5-CoV 3CL^pro; [Compound F2] 80 nM
  Initial Velocity: 0.01707 and 0.01468 and 0.01576
HKU5-CoV 3CL^pro; [Compound F2] 100 nM
  Initial Velocity: 0.01024 and 0.007665 and 0.009516
HKU5-CoV 3CL^pro; [Compound F2] 200 nM
  Initial Velocity: 0.003343 and 0.002684 and 0.002549
HKU5-CoV 3CL^pro; [Compound F2] 300 nM
  Initial Velocity: 0.000987 and 0.001807 and 0.00196
HKU5-CoV 3CL^pro; [Compound F2] 400 nM
  Initial Velocity: 0.002007 and 0.00134 and 0.002594
HKU5-CoV 3CL^pro; mean ± SEM
  Ki: 0.033 nM
VeroE6-EGFP cells; African green monkey
  CC50: > 50000 nM
VeroE6-EGFP cells; monkey
  CC50: > 50000 nM
SARS-CoV-2 USA-WA1/2020
  Lung viral titers: 160 IU/mL and 240 IU/mL and 110 IU/mL and 3500 IU/mL and 1600 IU/mL and 1100 IU/mL
SARS-CoV-2 [5]
  EC50: 60 ± 30 nM

## COc1cccc2[nH]c(C(=O)N[C@@H](CC(C)C)C(=O)N[C@@H](C[C@@H]3CCNC3=O)C(=O)COP(=O)(O)O)cc12 [PF-07304814]
[6]
  CC50 at 5 days: > 100000 nM
[6]; MRC-5 cells
  CC50 at 5 days: > 100000 nM
[6]; MRC-5 cells, with CP-100356 (efflux inhibitor) 0.5 µM
  CC50 at 5 days: > 100000 nM
[7]; Rat, best-fit, Two enzyme: MM + Unsaturable
  Vmax: 2188 pmol/min/mg
[7]; liver S9, pH 7.5, CL, unsaturable component, best-fit
  microsomal CLint: 4.56 µL/min/mg
[7]; liver S9, pH 7.5, CLint total, Rat, (vmax / KM) + CL
  microsomal CLint: 45.5 µL/min/mg
[7]; [10]
  microsomal CLint: 4.56 µL/min/mg
[7]; liver S9, pH 7.5, CLint,app
  microsomal CLint: 45.5 µL/min/mg
[7]; [11]
  microsomal CLint: 51 µL/min/mg
[7]; rat liver S9, pH 7.5, KM
  Km at 20 min: 53.4 µM
[7]; rat liver S9, pH 7.5, Km, Rat, best-fit, Two enzyme: MM + Unsaturable
  Km at 20 min: 53.4 µM
[8]; Cyno, best-fit, Two enzyme: MM + Unsaturable
  Vmax: 1186 pmol/min/mg
[8]; cynomolgus monkey, liver S9, pH 7.5, CL, Cyno, unsaturable component, best-fit
  microsomal CLint: 3.06 µL/min/mg
[8]; cynomolgus monkey, liver S9, pH 7.5, CLint total, Cyno, (vmax / KM) + CL
  microsomal CLint: 150 µL/min/mg
[8]; monkey, liver S9, pH 7.5, CLint,2, low affinity kinetic component
  microsomal CLint: 3.06 µL/min/mg
[8]; monkey, liver S9, pH 7.5, CLint,app
  microsomal CLint: 150 µL/min/mg
[8]; monkey, liver S9, pH 7.5, CLintu (unbound CLint)
  microsomal CLint: 168 µL/min/mg
[8]; monkey, monkey liver S9, pH 7.5
  Km at 20 min: 8.1 µM
[9]; substrate 0.207 µM
  PF-00835231 formation rate: 100 pmol/min/mg and 108 pmol/min/mg and 109 pmol/min/mg
[9]; substrate 3.81 µM
  PF-00835231 formation rate: 923 pmol/min/mg and 978 pmol/min/mg and 975 pmol/min/mg
[9]; substrate 16.3 µM
  PF-00835231 formation rate: 2081 pmol/min/mg and 1997 pmol/min/mg and 1964 pmol/min/mg
[9]; substrate 33.8 µM
  PF-00835231 formation rate: 2700 pmol/min/mg and 2483 pmol/min/mg and 2383 pmol/min/mg
[9]; substrate 70.0 µM
  PF-00835231 formation rate: 3450 pmol/min/mg and 3533 pmol/min/mg and 2817 pmol/min/mg
[9]; Human liver S9, best-fit, Two enzyme: MM + Unsaturable
  Vmax: 2313 pmol/min/mg
[9]; Human, best-fit, Two enzyme: MM + Unsaturable
  Vmax: 2313 pmol/min/mg
[9]; human liver S9, pH 7.5, KM
  Km at 20 min: 6.23 µM
[9]; human liver S9, pH 7.5, Km, Human liver S9, best-fit, Two enzyme: MM + Unsaturable
  Km at 20 min: 6.23 µM
[9]; liver S9, pH 7.5, CLint total, Human liver S9, CLint total = (vmax / KM) + CL
  microsomal CLint: 381 µL/min/mg
[9]; liver S9, pH 7.5, CLint total, Human, (vmax / KM) + CL
  microsomal CLint: 381 µL/min/mg
[9]; [10]
  microsomal CLint: 9.96 µL/min/mg
[9]; liver S9, pH 7.5, CLint,app
  microsomal CLint: 381 µL/min/mg
[9]; [11]
  microsomal CLint: 428 µL/min/mg
[9]; liver S9, pH 7.5, Human liver S9 Clint, clearance input
  microsomal CLint: 381 µL/min/mg
